Reference: PMC5442262, “Catechol glucosides act as donor/acceptor substrates of glucansucrase enzymes of Lactobacillus reuteri” (Applied Microbiology and Biotechnology, 2017)

How the values were obtained:
Format in all cases: biochemical
[1] = target: T1, Gtf180-ΔN (Limosilactobacillus reuteri, UniProt Q5SBN3); test: MALDI-TOF-MS of products; details: 100 mM catG1, 24 h; 25 mM sodium acetate pH 4.7, 1 mM CaCl2, 37 °C; donor and acceptor
T1 construct: recombinant, N-terminally truncated (ΔN)

[2] = target: T2, GtfML1-ΔN (Limosilactobacillus reuteri, UniProt Q5SBN0); test: MALDI-TOF-MS of products; details: 100 mM catG1, 24 h; 25 mM sodium acetate pH 4.7, 1 mM CaCl2, 37 °C; donor and acceptor
T2 construct: recombinant, N-terminally truncated (ΔN); also printed GtfMLI-ΔN

[3] = target: T1, Gtf180-ΔN; test: NP-HPLC of substrate decrease; 1H NMR of products; details: 100 mM cat^6G2; 25 mM sodium acetate pH 4.7, 1 mM CaCl2, 37 °C; donor and acceptor

T1 sequence (Q5SBN3 entry or part of it, stated change not applied): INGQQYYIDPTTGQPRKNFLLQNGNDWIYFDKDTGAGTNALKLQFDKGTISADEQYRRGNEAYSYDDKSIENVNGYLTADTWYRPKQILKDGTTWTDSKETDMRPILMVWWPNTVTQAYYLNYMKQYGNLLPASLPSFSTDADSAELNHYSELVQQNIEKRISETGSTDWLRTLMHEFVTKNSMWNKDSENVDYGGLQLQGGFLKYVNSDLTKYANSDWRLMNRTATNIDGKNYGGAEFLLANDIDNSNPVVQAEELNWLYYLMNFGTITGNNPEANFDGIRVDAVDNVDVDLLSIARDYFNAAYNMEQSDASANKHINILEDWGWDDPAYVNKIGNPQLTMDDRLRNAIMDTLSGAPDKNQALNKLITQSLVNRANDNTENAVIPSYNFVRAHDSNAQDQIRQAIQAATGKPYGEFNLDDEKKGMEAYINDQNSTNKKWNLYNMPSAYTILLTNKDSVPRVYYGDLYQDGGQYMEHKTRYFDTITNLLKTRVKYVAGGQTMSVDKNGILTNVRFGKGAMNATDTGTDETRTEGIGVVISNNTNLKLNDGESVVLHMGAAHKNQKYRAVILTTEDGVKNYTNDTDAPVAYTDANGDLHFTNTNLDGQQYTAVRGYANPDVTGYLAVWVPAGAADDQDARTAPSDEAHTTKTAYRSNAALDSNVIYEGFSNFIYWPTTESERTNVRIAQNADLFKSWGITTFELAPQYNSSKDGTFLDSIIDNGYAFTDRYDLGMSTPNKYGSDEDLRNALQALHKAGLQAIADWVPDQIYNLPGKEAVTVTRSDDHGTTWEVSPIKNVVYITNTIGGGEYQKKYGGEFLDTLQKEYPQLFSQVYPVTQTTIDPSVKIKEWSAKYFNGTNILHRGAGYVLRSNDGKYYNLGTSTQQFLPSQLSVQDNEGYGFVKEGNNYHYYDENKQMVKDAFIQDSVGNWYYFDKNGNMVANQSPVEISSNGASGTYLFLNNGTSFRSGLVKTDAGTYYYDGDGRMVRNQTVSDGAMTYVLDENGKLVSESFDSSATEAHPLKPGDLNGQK
T2 sequence (Q5SBN0 entry or part of it, stated change not applied): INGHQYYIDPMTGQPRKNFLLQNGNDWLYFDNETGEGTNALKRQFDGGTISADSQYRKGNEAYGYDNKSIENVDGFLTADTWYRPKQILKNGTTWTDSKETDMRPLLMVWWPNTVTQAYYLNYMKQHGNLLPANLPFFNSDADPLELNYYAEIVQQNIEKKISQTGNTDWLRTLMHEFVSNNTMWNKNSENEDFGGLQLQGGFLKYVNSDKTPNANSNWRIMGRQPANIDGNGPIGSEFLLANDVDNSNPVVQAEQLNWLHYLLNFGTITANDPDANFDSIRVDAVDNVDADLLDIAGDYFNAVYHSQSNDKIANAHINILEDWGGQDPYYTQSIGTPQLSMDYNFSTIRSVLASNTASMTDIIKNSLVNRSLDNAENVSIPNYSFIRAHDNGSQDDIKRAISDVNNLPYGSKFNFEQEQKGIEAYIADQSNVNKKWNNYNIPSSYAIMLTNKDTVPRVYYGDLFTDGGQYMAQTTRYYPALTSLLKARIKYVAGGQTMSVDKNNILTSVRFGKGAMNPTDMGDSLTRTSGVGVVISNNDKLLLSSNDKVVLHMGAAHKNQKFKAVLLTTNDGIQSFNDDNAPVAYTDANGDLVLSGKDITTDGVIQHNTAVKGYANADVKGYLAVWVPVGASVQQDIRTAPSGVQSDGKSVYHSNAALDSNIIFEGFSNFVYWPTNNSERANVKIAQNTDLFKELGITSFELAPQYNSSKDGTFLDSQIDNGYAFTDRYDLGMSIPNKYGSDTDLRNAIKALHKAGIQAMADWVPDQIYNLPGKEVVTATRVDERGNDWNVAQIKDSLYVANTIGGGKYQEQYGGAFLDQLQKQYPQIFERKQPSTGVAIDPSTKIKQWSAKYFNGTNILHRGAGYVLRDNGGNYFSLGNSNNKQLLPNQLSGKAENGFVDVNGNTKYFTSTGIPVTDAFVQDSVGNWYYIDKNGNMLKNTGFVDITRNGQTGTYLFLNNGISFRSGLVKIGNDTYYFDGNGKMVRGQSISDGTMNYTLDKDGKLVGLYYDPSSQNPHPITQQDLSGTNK

Structure (SMILES)	MALDI-TOF-MS of products [1]	MALDI-TOF-MS of products [2]	NP-HPLC of substrate decrease; 1H NMR of products [3]
OC[C@H]1O[C@H](Oc2ccccc2O)[C@H](O)[C@@H](O)[C@@H]1O [catG1]	Gtf180-ΔN and GtfMLI-ΔN glucansucrase enzymes also were able to use catG1 as glucosyl donor	Gtf180-ΔN and GtfMLI-ΔN glucansucrase enzymes also were able to use catG1 as glucosyl donor	
OC[C@H]1O[C@H](OC[C@H]2O[C@H](Oc3ccccc3O)[C@H](O)[C@@H](O)[C@@H]2O)[C@H](O)[C@@H](O)[C@@H]1O [cat^6G2]			Gtf180-ΔN used both cat^3G2 and cat^6G2 as donor/acceptor substrates
